Results as given in ChEMBL document CHEMBL1201862, “PubChem BioAssay data set” (2004).
Where “and” joins values, the source holds several entries; their conditions need not be identical. Identical values can stand only once. Calls of active or inactive are those of the source.

Key:
[1] = system: Streptococcus sp. 'group A'; assay: Streptococcus pyogenes SK(-)GAS viability under kanamycin – luminescence, BacTiterGlo, confirmation, counter-screen for streptokinase expression inhibitor project, dose response (AID 1900); assay type: functional, organism-based
Streptokinase A = biological target: T1, Streptokinase A (Streptococcus pyogenes serotype M1, UniProt P10520); assay: viability-normalized secreted streptokinase activity reduction – plasminogen activation absorbance, OD405, dose response (AID 1914); assay type: functional, Streptococcus pyogenes M1 GAS;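 further: secreted streptokinase activity via plasminogen activation per viability signal from cell pellet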
T1 sequence (P10520 whole entry): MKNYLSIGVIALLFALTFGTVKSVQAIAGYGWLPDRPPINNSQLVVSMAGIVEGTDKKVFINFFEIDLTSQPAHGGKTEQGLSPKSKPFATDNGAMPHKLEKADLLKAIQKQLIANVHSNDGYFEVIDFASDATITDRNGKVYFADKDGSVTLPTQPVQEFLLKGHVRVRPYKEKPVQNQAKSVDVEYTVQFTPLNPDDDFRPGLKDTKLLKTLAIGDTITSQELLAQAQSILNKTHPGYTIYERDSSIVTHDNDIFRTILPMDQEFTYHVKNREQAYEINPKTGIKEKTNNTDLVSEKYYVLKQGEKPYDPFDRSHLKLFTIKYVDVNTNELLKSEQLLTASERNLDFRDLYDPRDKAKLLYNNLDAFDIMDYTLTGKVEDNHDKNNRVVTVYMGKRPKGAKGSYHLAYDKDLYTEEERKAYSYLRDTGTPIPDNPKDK

Streptococcus = assay: GAS UMAA2166 growth inhibition – luminescence, BacTiterGlo, counter-screen for streptokinase expression inhibitor project, dose response (AID 1915); assay type: functional, organism-based;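 further: potency for reduction of bacterial viability or growth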
[2] = THP-1 cell cytotoxicity, dose response, cytotoxicity control for non-replicating M. tuberculosis project (AID 489025); assay type: functional
[3] = HepG2 cell cytotoxicity, dose response, cytotoxicity control for non-replicating M. tuberculosis project (AID 489018); assay type: functional; conditions: Mycobacterium tuberculosis
[4] = Vero E6 cell cytotoxicity, dose response, cytotoxicity control for non-replicating M. tuberculosis project, secondary assay (AID 492998); assay type: functional, VeroE6; conditions: Vero C1008
cells = assay type: functional
[5] = biological target: T2, RNA-binding protein pos-1 (Caenorhabditis elegans, UniProt G5EF15); assay: disruptors of C. elegans POS-1 RNA interaction – biochemical, fluorescence polarization, dose response (AID 1964);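 further: purified POS-1 fused to maltose binding protein made in E. coli; potency of compounds blocking POS-1 binding to fluorescent RNA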
T2 sequence (G5EF15 whole entry): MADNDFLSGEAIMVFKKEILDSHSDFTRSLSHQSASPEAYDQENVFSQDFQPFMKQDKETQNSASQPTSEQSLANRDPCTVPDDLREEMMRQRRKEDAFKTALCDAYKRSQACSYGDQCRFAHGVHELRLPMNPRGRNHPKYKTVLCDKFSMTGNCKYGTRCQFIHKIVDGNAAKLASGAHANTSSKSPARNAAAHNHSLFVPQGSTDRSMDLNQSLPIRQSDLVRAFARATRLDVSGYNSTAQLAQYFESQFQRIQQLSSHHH

[6] = biological target: T3, Zinc finger protein mex-5 (Caenorhabditis elegans, UniProt Q9XUB2); assay: potency of MEX-5 RNA-binding blockers – biochemical, C. elegans, fluorescence polarization, dose response (AID 1960)
T3 sequence (Q9XUB2 whole entry): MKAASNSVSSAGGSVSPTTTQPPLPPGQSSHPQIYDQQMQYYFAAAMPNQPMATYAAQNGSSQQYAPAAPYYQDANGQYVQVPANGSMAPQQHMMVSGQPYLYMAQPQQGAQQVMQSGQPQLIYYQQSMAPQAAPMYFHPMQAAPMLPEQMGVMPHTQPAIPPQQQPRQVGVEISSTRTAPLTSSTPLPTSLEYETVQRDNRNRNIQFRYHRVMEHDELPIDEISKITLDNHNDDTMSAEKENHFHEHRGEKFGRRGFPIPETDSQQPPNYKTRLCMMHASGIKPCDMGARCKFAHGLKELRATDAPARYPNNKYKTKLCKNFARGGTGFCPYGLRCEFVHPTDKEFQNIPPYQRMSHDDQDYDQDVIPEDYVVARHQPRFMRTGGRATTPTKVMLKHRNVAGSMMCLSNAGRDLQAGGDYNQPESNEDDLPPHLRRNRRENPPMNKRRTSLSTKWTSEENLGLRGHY

[7] = biological target: T4, Mannose-6-phosphate isomerase (Homo sapiens, UniProt P34949); assay: MPI enzyme activity inhibition – biochemical, fluorescence intensity, coupled assay, primary screen (AID 1209)
T4 sequence (P34949 whole entry): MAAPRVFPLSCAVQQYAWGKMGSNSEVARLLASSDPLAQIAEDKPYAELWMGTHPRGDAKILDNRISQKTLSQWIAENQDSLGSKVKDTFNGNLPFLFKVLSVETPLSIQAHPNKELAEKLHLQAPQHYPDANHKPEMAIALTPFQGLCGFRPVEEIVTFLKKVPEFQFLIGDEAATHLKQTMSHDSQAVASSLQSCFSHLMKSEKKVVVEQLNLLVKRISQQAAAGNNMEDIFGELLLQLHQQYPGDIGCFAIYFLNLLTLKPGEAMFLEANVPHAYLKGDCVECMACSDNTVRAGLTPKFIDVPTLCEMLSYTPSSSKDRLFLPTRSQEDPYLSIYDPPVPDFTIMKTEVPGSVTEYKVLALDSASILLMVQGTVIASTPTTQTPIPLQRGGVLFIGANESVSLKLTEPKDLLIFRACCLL

[8] = biological target: Eukaryotic translation initiation factor 4E (Mus musculus, UniProt P63073); assay: blockers of eIF4G binding by eIF4E – biochemical, TR-FRET, dose response (AID 855); assay type: functional;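 further: potency for disrupting eIF4E binding to eIF4GI seen as loss of FRET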
Eukaryotic translation initiation factor 4E, sequence (P63073 whole entry): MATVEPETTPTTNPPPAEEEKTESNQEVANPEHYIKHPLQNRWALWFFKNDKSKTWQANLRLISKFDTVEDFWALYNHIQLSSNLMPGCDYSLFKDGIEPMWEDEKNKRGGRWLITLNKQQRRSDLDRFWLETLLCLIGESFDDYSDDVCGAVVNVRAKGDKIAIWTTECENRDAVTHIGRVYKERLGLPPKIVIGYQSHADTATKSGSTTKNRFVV

Nonstructural protein 1 = Nonstructural protein 1 (Influenza A virus, UniProt Q194T2); assay type: functional, Influenza A virus (A/California/07/2009(H1N1))
Nonstructural protein 1, sequence (Q194T2 whole entry): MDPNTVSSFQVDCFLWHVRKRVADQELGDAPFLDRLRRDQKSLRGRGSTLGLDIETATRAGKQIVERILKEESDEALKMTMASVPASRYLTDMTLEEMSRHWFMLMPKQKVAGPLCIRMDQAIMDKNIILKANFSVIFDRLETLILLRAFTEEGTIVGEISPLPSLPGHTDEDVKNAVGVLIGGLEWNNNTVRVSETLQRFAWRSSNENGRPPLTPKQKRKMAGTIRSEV

[9] = biological target: Ras and Rab interactor 1/Tyrosine-protein kinase ABL1 (Homo sapiens, UniProt P00519+Q13671); assay type: functional;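 further: biochemical TR-FRET dose-response test measuring inhibition of binding between Rin1 and Abl proteins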
Ras and Rab interactor 1/Tyrosine-protein kinase ABL1, sequence (P00519 whole entry): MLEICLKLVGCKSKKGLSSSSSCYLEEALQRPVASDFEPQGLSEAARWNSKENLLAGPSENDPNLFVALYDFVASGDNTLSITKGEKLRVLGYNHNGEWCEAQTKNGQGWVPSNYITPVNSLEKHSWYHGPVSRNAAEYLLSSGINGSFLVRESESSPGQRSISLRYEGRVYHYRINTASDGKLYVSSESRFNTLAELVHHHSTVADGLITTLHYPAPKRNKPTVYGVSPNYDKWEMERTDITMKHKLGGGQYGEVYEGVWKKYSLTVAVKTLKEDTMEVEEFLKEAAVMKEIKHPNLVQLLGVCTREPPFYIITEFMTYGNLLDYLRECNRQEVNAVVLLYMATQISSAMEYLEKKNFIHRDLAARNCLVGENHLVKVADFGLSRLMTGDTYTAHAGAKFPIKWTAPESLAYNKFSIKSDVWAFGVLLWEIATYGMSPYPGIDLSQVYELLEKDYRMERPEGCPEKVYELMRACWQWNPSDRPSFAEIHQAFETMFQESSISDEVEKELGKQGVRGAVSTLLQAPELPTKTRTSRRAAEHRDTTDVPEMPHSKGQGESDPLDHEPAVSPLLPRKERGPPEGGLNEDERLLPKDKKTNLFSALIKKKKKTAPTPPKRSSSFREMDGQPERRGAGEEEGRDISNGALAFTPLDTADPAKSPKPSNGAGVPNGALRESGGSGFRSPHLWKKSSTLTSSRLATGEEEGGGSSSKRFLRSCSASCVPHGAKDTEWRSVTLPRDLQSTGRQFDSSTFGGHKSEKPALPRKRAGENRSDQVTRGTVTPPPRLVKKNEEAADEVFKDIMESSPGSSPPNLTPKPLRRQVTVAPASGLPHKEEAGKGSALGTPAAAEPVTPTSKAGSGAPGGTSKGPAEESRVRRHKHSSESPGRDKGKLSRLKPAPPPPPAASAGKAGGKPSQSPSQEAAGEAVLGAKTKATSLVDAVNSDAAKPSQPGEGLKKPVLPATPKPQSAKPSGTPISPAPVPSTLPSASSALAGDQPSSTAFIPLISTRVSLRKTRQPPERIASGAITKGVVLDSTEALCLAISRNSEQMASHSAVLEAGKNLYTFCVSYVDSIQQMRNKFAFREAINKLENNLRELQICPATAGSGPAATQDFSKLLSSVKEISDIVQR
Ras and Rab interactor 1/Tyrosine-protein kinase ABL1, sequence (Q13671 whole entry): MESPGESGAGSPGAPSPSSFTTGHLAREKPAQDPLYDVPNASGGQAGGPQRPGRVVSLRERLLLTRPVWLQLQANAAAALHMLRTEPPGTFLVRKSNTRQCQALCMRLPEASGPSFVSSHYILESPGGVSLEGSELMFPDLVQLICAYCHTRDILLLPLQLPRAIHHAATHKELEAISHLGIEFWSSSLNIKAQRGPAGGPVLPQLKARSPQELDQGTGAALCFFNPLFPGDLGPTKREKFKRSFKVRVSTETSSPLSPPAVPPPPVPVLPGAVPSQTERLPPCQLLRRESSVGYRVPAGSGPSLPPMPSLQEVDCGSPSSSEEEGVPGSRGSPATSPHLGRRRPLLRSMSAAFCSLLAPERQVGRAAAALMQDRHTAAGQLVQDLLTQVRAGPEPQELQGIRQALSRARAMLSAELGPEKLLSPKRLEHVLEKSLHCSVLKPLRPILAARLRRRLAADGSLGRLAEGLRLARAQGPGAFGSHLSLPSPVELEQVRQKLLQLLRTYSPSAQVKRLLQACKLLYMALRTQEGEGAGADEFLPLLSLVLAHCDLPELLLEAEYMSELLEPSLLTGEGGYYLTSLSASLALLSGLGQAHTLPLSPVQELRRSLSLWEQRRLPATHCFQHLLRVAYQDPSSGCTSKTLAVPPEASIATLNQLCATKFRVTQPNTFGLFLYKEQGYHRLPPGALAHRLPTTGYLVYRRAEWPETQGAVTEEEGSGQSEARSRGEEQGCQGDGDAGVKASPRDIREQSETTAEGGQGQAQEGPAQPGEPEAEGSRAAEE

[10] = biological target: T5, Long-chain-fatty-acid--AMP ligase FadD28 (Mycobacterium tuberculosis, UniProt P9WQ59); assay: Fluorescence polarization aasay to screen for inhibitors that compete for the binding of FadD28 to a bisubstrate Measured in Biochemical System Using Plate Reader - 2147-01_Inhibitor_Dose_CherryPick_Activity.; assay type: functional, Mycobacterium tuberculosis H37Rv
T5 sequence (P9WQ59 whole entry): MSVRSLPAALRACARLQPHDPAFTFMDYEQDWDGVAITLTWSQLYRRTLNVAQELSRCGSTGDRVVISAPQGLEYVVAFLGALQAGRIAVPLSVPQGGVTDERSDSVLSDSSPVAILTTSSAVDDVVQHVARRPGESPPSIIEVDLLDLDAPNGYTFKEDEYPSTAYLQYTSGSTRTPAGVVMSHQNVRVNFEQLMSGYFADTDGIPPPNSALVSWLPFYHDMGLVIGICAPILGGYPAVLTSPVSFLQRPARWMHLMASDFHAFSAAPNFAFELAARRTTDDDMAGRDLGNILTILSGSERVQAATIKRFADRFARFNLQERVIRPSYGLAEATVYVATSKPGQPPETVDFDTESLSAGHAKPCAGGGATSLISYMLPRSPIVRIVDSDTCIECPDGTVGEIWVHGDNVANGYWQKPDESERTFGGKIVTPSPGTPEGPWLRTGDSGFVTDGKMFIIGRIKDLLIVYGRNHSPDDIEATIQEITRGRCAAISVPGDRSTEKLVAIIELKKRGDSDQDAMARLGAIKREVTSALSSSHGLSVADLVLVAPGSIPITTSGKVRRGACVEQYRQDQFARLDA

Protein Tat = biological target: T6, Protein Tat (Human immunodeficiency virus type 1 group M subtype B (isolate HXB2)(HIV-1), UniProt P04608); assay type: functional;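 further: tat binding to TAR RNA read out by fluorescence polarization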
T6 sequence (P04608 whole entry): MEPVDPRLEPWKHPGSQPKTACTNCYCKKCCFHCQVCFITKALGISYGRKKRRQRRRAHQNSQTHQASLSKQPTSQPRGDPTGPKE

[11] = biological target: G-protein coupled receptor 55 (Homo sapiens, UniProt Q9Y2T6); assay: inhibition of LPI-stimulated GPR55 beta-arrestin translocation – imaging, U2OS, beta-arrestin-GFP, LPI agonist, primary screen (AID 2013); assay type: functional;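 further: antagonist potency measured as reduced agonist-driven arrestin aggregation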
G-protein coupled receptor 55, sequence (Q9Y2T6 whole entry): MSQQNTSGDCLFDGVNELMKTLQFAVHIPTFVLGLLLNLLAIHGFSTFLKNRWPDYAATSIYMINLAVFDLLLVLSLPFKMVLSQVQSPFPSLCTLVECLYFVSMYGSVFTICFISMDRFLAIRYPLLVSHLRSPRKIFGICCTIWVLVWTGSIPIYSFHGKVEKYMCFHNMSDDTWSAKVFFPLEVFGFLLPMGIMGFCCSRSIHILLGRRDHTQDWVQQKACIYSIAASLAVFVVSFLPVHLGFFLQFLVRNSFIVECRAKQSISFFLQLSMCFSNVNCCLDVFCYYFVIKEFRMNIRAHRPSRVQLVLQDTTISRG

[12] = biological target: T7, Short transient receptor potential channel 4 (Mus musculus, UniProt Q9QUQ5); assay: block of DAMGO-driven TRPC4 calcium entry – cell-based, HEK293 TRPC4/mu-opioid, Fluo-4 calcium, dose response (AID 434942); assay type: functional;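 further: potency of inhibitors blocking the TRPC4 calcium response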
T7 sequence (Q9QUQ5 whole entry): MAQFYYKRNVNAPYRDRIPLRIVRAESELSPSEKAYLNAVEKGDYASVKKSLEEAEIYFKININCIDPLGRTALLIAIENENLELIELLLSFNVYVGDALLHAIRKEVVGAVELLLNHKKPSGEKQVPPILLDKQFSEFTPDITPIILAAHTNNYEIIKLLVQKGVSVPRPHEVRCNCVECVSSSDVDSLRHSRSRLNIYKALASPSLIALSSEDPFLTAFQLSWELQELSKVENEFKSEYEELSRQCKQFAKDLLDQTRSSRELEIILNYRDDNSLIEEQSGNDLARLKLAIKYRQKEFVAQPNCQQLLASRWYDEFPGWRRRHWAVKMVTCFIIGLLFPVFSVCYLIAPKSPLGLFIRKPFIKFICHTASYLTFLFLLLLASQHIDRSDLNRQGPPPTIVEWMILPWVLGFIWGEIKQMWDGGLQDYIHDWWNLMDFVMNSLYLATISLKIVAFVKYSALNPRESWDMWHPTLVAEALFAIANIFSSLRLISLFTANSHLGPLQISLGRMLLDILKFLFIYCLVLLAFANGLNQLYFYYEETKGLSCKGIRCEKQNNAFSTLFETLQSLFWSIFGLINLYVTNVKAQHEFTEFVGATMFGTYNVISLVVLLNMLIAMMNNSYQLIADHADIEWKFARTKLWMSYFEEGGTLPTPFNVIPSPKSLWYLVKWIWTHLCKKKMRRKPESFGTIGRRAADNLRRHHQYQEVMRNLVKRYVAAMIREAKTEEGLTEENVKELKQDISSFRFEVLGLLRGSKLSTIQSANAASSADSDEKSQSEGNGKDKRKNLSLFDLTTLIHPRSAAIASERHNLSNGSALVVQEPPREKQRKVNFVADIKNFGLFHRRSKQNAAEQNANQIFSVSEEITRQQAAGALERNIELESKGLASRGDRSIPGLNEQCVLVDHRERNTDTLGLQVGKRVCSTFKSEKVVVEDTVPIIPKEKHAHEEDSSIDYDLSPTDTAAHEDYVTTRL

Coagulation factor XII = biological target: T8, Coagulation factor XII (Homo sapiens, UniProt P00748); assay type: functional;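 further: activated factor XIIa alpha cleaving a fluorogenic AMC peptide substrate; inhibitor potency from loss of enzyme activity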
T8 sequence (P00748 whole entry): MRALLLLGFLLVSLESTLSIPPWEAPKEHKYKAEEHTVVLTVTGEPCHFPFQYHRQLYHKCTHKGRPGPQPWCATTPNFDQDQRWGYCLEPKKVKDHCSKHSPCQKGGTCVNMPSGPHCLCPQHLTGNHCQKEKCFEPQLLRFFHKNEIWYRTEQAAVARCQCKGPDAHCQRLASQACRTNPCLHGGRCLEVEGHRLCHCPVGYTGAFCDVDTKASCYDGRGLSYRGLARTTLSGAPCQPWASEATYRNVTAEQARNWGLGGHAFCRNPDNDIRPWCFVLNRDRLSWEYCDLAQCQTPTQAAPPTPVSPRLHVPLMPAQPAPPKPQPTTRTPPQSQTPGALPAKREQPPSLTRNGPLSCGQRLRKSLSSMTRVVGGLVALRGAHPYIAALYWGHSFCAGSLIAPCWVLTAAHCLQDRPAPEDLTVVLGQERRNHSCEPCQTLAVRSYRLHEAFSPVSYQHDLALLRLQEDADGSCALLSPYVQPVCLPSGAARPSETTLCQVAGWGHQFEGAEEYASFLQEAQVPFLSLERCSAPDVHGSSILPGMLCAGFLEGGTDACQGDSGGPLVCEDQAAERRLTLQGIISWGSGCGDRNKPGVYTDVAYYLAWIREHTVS

[13] = biological target: DNA dC->dU-editing enzyme APOBEC-3A (Homo sapiens, UniProt P31941); assay: A3A deaminase inhibition for selectivity – biochemical, dose response (AID 504722); assay type: functional
DNA dC->dU-editing enzyme APOBEC-3A, sequence (P31941 whole entry): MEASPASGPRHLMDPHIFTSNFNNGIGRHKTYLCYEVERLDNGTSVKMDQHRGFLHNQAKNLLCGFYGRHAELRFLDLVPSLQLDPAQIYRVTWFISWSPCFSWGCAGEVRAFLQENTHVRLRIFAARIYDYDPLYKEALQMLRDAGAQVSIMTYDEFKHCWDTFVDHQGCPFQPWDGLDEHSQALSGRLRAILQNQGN

[14] = biological target: DNA dC->dU-editing enzyme APOBEC-3G (Homo sapiens, UniProt Q9HC16); assay: Dose Response confirmation of small molecule APOBEC3G DNA Deaminase Inhibitors via a fluorescence-based single-stranded DNA deaminase assay. [Related pubchem assays (depositor defined):AID493012, AID493028]; assay type: functional
DNA dC->dU-editing enzyme APOBEC-3G, sequence (Q9HC16 whole entry): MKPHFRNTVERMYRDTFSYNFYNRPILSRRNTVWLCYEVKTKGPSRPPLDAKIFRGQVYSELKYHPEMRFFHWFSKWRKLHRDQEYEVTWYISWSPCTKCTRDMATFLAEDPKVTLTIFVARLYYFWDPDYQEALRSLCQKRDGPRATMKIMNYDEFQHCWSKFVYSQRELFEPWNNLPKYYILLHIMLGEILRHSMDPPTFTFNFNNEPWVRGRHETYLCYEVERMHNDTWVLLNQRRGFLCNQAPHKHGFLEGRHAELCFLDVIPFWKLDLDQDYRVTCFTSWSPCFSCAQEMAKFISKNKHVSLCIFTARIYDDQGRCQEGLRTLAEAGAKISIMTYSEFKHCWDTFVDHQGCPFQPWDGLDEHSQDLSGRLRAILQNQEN

O=C(Nc1nnc(-c2ccncc2)o1)c1ccc(Br)s1
EC50 [1]: 3.57 µM (active) | EC50 (Streptokinase A): > 150 µM (not active) | EC50 (Streptococcus): 11.8 µM (active) | CC50 [2]: 23.7 µM (active) | CC50 [3]: 19.3 µM (active) | CC50 [4]: 16.8 µM (active) | IC50 (cells): 18.3 µM (active)

Cc1c2cc(O)c(=O)cc-2oc2cc(O)c(O)cc12
EC50 [5]: 1.9 µM (inconclusive) | EC50 [6]: 0.082 µM (active) | IC50 [7]: 3.55 µM (active) | IC50 [8]: 43.3 µM (inactive) | IC50 (Nonstructural protein 1): 30.5 µM (active) | IC50 [9]: 0.835 µM (active) | AC50 [10]: 4.65 µM (active) | IC50 (Protein Tat): 31.3 µM (inconclusive) and > 52.2 µM (active)

CCOC(=O)c1c(N)sc(C(O)(C(F)(F)F)C(F)(F)F)c1-c1ccccc1
IC50 [11]: 3.66 µM (active) | EC50 [12]: 7.5 µM (active)

CC(=O)NC(CC(=O)OCC(=O)c1c(N)n(C)c(=O)n(C)c1=O)c1ccccc1 (centres undefined)
IC50 (Coagulation factor XII): > 50 µM (inactive)

CC(C)CC(=O)NC(Oc1ccc(Cl)cc1)C(Cl)(Cl)Cl (centres undefined)
IC50 [11]: 1.17 µM (active)

Cc1nc(SCc2ccccc2)c2ccsc2n1
IC50 (Coagulation factor XII): > 50 µM (inactive)

N#Cc1cnn(Cc2ccc(Cl)cc2)c1N
IC50 (Coagulation factor XII): > 50 µM (inactive)

Cc1cc(-c2nnc(S)n2/N=C/c2ccc(C)o2)n[nH]1
IC50 [13]: > 100 µM (inactive) | IC50 [14]: 5.66 µM (active)

CCn1c(S)nnc1CSCc1ccccc1
IC50 [13]: > 100 µM (inactive) | IC50 [14]: 8.31 µM (active)

Cc1ccc(-n2c(C)cc(C3=NN=C(NC4CC4)SC3)c2C)cc1C
CC50 [2]: 20 µM (active) | CC50 [3]: > 20 µM (active) | CC50 [4]: > 20 µM (active) | IC50 (cells): 39 µM (active)
